Assays:
carotid artery = assay: FeCl3-induced carotid arterial injury model (arterial thrombosis); assay type: in vivo, rat (male Sprague-Dawley); conditions: rat; IV bolus 0.75 mg/kg then IV infusion 50 μg/kg/min; time to occlusion in drug-treated divided by control; 60 minutes monitoring
Protocol: The FeCl3-- induced injury to the carotid artery in rats was induced according to the method described by Kurz K. D., Main R. W., Sandusky G. E., Thrombosis Research, 1990; 60:269-280 and Schumacher W. A., et al., J. Pharmacology and Experimental Therapeutics, 1993; 267:1237-1242.
Male, Sprague-Dawley rats (375-410 g) were anesthetized with urethane (1500 mg/kg ip). Animals were laid on a 37° C. heating pad. The carotid artery was exposed through a midline cervical incision. Careful blunt dissection was used to isolate the vessel from the carotid sheath. Using forceps, the artery was lifted to provide sufficient clearance to insert two small pieces of polyethylene tubing (PE-205) underneath it. A temperature probe (Physitemp MT23/3) was placed between one of the pieces of tubing and the artery. Injury was induced by topical application on the carotid artery above the temperature probe of a small disc (3 mm dia.) of Whatman No. 1 filter paper previously dipped in a 35% solution of FeCl3. […] The vessel temperature was monitored for 60 minutes after application of FeCl3 as an indication of blood flow. Vessel temperature changes were recorded on a thermistor (Cole-Palmer Model 08533-41).
The time between the FeCl3 application and the time at which the vessel temperature decreased abruptly (>2.4° C.) was recorded as the time to occlusion of the vessel. […]

Factor Xa = Factor Xa (Homo sapiens, UniProt P00742); assay: Determination of Factor Xa IC50 (chromogenic substrate S2765); assay type: biochemical; conditions: 60 minutes incubation at room temperature
Sequence of Factor Xa (P00742 235-488 limits assumed): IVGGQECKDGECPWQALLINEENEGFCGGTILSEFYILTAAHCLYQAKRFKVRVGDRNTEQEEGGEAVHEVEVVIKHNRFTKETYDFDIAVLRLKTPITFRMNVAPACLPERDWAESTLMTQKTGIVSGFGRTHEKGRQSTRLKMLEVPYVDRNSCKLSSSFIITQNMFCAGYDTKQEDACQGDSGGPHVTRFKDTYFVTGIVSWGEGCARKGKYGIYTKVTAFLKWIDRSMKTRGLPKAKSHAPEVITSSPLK
Sequence of Factor Xa (P00742 41-179 limits assumed): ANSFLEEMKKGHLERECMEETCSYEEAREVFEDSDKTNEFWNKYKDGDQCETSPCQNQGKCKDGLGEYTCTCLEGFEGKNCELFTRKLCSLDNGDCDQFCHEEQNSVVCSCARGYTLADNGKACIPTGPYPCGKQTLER
Protocol: (§1) The ability of compounds to act as inhibitors of Factor Xa catalytic activity is assessed by determination of that concentration of test substance that inhibits by 50% (IC50) the ability of Factor Xa to cleave the chromogenic substrate S2765 (N-CBz-D-Arg-L-Gly-L-Arg-p-nitroanilide.cndot.2 HCl). Typically, Factor Xa in 10 mM HEPES, 100 mM NaCl, 0.05% BSA, and 0.1% PEG-8000 and the test substance in DMSO are incubated for 60 minutes at room temperature. To this mixture is added S2765 and the velocity of S2765 hydrolysis measured by observing the intensity of absorbance at 405 nm over 5 minutes.

human thrombin = human thrombin (Homo sapiens, UniProt P00734); assay: Determination of Thrombin Ki (fluorogenic substrate Tos-Gly-Pro-Arg-AMC); assay type: biochemical; conditions: 50 mM Tris-HCl pH 7.52 at 37° C., 0.1 M NaCl, 0.1% poly(ethylene glycol) 8000, room temperature
Protocol: Compounds of the present invention may be prepared for assay by dissolving them in buffer to give solutions ranging in concentrations from 1 to 100 μM. In an assay to determine the inhibitory dissociation constant, Ki, for a given compound, a chromogenic or fluorogenic substrate of thrombin is added to a solution containing a test compound and thrombin; the resulting catalytic activity of the enzyme is spectrophotometrically determined. This assay is well-known to those skilled in the art and is commonly used to determine antithrombotic activity.
The affinity of inhibitors for thrombin was measured according to the procedures described in (DiMaio, et al., J. Biol. Chem., 1990; 265:21698). Inhibition of amidolytic activity of human thrombin was measured fluorometrically using Tos-Gly-Pro-Arg-AMC as a fluorogenic substrate in 50 mM Tris-HCl buffer (pH 7.52 at 37° C.) containing 0.1 M NaCl and 0.1% poly(ethylene glycol) 8000 at room temperature. Buffer substrate and inhibitor were mixed, and the reaction was initiated by adding the enzyme solution. Initial velocities were recorded at several inhibitor and substrate concentrations. Kinetic parameters were determined by fitting the data to a general equation describing enzyme inhibition (Segel, Enzyme Kinetics, Wiley Interscience Publications, 1993). […]

trypsin = molecular target: T1, trypsin (Bos taurus, UniProt P00760); assay: Determination of Trypsin IC50 (chromogenic substrate S2222); assay type: biochemical; conditions: 60 minutes incubation at room temperature
T1 sequence (P00760 24-246): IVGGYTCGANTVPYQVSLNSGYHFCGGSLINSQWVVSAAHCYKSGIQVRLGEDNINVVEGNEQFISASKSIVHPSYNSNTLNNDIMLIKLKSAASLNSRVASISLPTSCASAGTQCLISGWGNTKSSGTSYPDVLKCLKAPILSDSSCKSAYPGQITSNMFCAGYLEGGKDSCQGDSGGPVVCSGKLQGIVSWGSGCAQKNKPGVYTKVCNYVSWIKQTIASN
Protocol: as §1, with “trypsin” for “Factor Xa”, “S2222 (N-Bz-L-Ile-L-Glu-L-Gly-L-Arg-p-nitroanilide.cndot.HCl).” for “S2765 (N-CBz-D-Arg-L-Gly-L-Arg-p-nitroanilide.cndot.2 HCl).”, “PEG-8000,” for “PEG-8000”, “S2222” for “S2765”

N=C(N)NCCC[C@H](NC(=O)[C@@H]1CC[C@H]2C(=O)N(CCCc3ccccc3)CC(=O)N12)C(=O)c1nccs1 [Example 11, [6S-[6α(R*),8aα]]-1,4-Dioxo-2-(3-phenyl-propyl)-octahydropyrrolo[1,2-a]pyrazine-6-carboxylic acid [4-guanidino-1-(thiazol-2-carbonyl)-butyl]-amide]
Fold Shift in MOT (mean occlusion time) (carotid artery): > 3.3
IC50 (Factor Xa): 30 nM
Ki (human thrombin): 3 nM
IC50 (trypsin): < 1 nM

Source: patent US6124291A, “Pyrrolo[1,2-a]pyrazine-1,4-dione serine protease inhibitors” (Warner-Lambert Company, priority 1998, dated 2000)
